# Laboratory results as given in patent US20260092114A1, “TREATMENT OF LUNG CANCER USING A COMBINATION OF AN ANTI-PD-1 ANTIBODY AND ANOTHER ANTI-CANCER AGENT” (Bristol-Myers Squibb Company, priority 2016, published 2026).
# Where two headings read alike, the source gives them in different places.
# Assays:
# NSCLC = details: cited from earlier work; for median OS with maintenance therapy: non-squamous NSCLC patients, maintenance after platinum doublet
# [1] = system: metastatic squamous cell NSCLC; details: cited from earlier work
# [2] = CA184022 study of ipilimumab; type: in vivo, human
# Experimental: Similarly, ipilimumab at 10 mg/kg has been safely administered over a 90 minute duration. In the CA184022 study, where ipilimumab was administered up to a dose of 10 mg/kg, on-study drug related hypersensitivity events (Grade 1-2) were reported in 1 (1.4%) subject in the 0.3 mg/kg and in 2 (2.8%) subjects in the 10 mg/kg group. […] Ipilimumab 10 mg/kg monotherapy has also been safely administered as 90 minute infusion in large phase 3 studies in prostate cancer (CA184043) and as adjuvant therapy for stage 3 melanoma (CA184029), with infusion reactions occurring in subjects. Administering 1 mg/kg of ipilimumab represents one-tenth of the 10 mg/kg dose.
# [3] = system: CMV specific memory T cells; assay: CMV re-stimulation assay with human PBMC; type: cell-based; details: dose-dependent, versus isotype-matched control
# Excerpt: (Topalian S L et al. N Eng J Med 2012; 366: 2443-54.)
# [4] = system: chemotherapy-naive advanced NSCLC; assay: CA209012 Phase 1 study, nivolumab monotherapy and nivolumab plus ipilimumab, first line; type: in vivo, human
# Experimental: Nivolumab monotherapy at 3 mg/kg every 2 weeks has been evaluated in one of several cohorts of chemotherapy-naive patients with advanced NSCLC in study CA209012. Results from this cohort (n=52), including 13 subjects with squamous histology and 39 subjects with non-squamous histology, show an overall response rate (ORR) of 23% and a disease control rate (DCR) of 50%. The PFS rate at 24 weeks is 41%, with a median PFS of 16 weeks. The OS rate at 12 months is 74%, and the median overall survival (OS) is 22.6 months. The majority of responses have been durable, with the median duration of response not reached. In contrast, the median OS for patients with non-squamous histology who receive platinum doublet chemotherapy is 13 months, and for those with squamous histology is 10 months. (Ellis et al. J Clin Oncol (2014) 32:1277-1280.)
# The nivolumab plus ipilimumab combination has been also evaluated at several different doses and schedules as first line therapy in patients with advanced NSCLC in CA209012, an ongoing Phase 1 study of nivolumab as monotherapy and in combination with a variety of agents. Early cohorts evaluated 2 different dosing schedules: nivolumab 1 mg/kg+ipilimumab 3 mg/kg, every 3 weeks for four cycles as induction, followed by nivolumab 3 mg/kg every 2 weeks; or nivolumab 3 mg/kg+ipilimumab 1 mg/kg, every 3 weeks for four cycles as induction, followed by nivolumab 3 mg/kg every 2 weeks.
# Thus, a third combination cohort was initiated: nivolumab 1 mg/kg+ipilimumab 1 mg/kg every 3 weeks (“1+1”) for 4 cycles as induction, followed by nivolumab 3 mg/kg every 2 weeks as maintenance. This dosing regimen has been much better tolerated with only 13% of subjects experiencing treatment-related AEs leading to discontinuation. […] The ORR is 16%, and the DCR is 58%. The PFS rate at 24 weeks is 55% with a median PFS of 46.1 weeks. The OS rate at 12 months is 63%, and the median OS is not reached. Activity has been observed in patients with both PD-L1 positive (PD-L1+) and PD-L1 negative (PD-L1−) tumors. […]
# Analyses based on archival specimens for subjects in CA209012 have shown that subjects with both PD-L1+(IHC greater than or equal to 5%) and PD-L1 tumors may benefit from treatment with nivolumab. […] However, the disease control rate (DCR, CR+PR+SD) was 54% for those with PD-L1+ tumors and 50% for those with PD-L1− tumors. […] Again there was less of a difference in the DCR between the 2 groups: 53% for those with PD-L1+ tumors and 51% for those with PD-L1− tumors. For subjects receiving nivolumab monotherapy, the PFS rate at 24 weeks was 40% and 45% for patients with PD-L1+ and PD-L1− tumors respectively; the median OS was 19.1 months in subjects with PD-L1+ tumors and not reached in subjects with PD-L1− tumors. For subjects receiving nivolumab plus ipilimumab, the median PFS was 21.7 weeks and 12.4 weeks in PD-L1+ and PD-L1− tumors respectively; the median OS was 21.5 months in subjects with PD-L1+ tumors and 19.4 months in subjects with PD-L1− tumors. […]
# [5] = nivolumab pharmacokinetics, population pharmacokinetic (PPK) analysis; type: in vivo, human; details: for Cavgss Geo. Mean / Cmaxss Geo. Mean / Cminss Geo. Mean: geometric mean (cv %)
# Experimental: Nivolumab monotherapy has been studied in NSCLC patient population in studies CA209003, CA209063, CA209017, and CA209057 with body weight normalized dosing (mg/kg). Nivolumab pharmacokinetics (PK) and exposures of subjects in these studies have been characterized by population pharmacokinetic (PPK) analysis of data collected these studies, together with PK data from several phase 1, 2, and 3 clinical studies of nivolumab monotherapy in solid tumors. Nivolumab PK was determined to be linear, with dose proportional exposures over a dose range of 0.1 to 10 mg/kg. […] Conversely, given the relationship between nivolumab PK and body weight, a flat dose is expected to lead to lower exposures in heavier patients, relative to the exposures in lighter patients.
# Table 3 presents summary statistics of the estimated nivolumab steady-state trough, peak and time-averaged concentration (Cminss, Cmaxss, and Cavgss, respectively) in NSCLC subjects receiving 3 mg/kg, together with corresponding statistics of exposures predicted for a flat nivolumab dose of 240 mg. It should be noted that a dose of 240 mg nivolumab is identical to a dose of 3 mg/kg for subjects weighing 80 kg, which is the approximate median body weight of NSCLC subjects in the 3 phase 2 and 3 clinical studies of nivolumab monotherapy in NSCLC patients (CA209017, CA209057, and CA209063).
# [6] = nivolumab monotherapy tolerability across clinical studies; type: in vivo
# previously treated NSCLC = details: cited from earlier work
# [7] = system: metastatic squamous cell NSCLC; details: CA209063, 117 patients; cited from earlier work
# [8] = system: second line or later NSCLC; details: 3 mg/kg dose, cited from earlier work
# PD-1 = PD-1 (Homo sapiens, UniProt Q15116); set-up: endogenous in cells; details: across all doses 0.3 mg/kg to 10 mg/kg, 15 subjects; cited from earlier work
# Chain of PD-1 (Q15116 25-288): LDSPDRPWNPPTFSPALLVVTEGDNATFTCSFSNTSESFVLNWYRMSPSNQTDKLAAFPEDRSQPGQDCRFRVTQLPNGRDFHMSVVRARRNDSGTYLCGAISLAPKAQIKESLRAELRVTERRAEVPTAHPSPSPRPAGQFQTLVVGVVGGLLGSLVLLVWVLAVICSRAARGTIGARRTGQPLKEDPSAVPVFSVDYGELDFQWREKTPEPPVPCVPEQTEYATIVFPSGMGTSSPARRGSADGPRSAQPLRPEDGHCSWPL
# [9] = monotherapy 3 mg/kg every 2 weeks, n=52
# [10] = dose 3 (mg/kg), NSCLC subjects, estimated
molecule,measurement,setting,value
"CC(=O)O[C@@]12CO[C@@H]1C[C@H](O)[C@@]1(C)C(=O)[C@H](O)C3=C(C)[C@@H](OC(=O)[C@H](O)[C@@H](NC(=O)OC(C)(C)C)c4ccccc4)C[C@@](O)([C@@H](OC(=O)c4ccccc4)[C@H]21)C3(C)C [docetaxel, reference compound]",historical ORR,NSCLC; second-line,8-10%
same,historical median PFS,NSCLC; second-line,approximately 3 months
same,median overall survival (OS),[1]; CA209017,6 months
same,patients with a Grade 3-5 treatment-related event,[1]; CA209017,Fifty-seven
same,treatment-related deaths (grade 5 event),[1]; CA209017,3
Nc1nc2[nH]cc(CCc3ccc(C(=O)N[C@@H](CCC(=O)O)C(=O)O)cc3)c2c(=O)[nH]1 [pemetrexed],median OS with maintenance therapy,NSCLC,~13.9 month
bevacizumab: monoclonal antibody that blocks vascular endothelial growth factor A (VEGF-A),median OS with maintenance therapy,NSCLC,~13.9 month
gemcitabine/cisplatin,"alopecia, all grades","NSCLC; human, in vivo",21%
same,"fatigue, Grade 3/4","NSCLC; human, in vivo",5%
same,"febrile neutropenia, Grade 3/4","NSCLC; human, in vivo",4%
same,rate of Grade 3/4 anemia,"NSCLC; human, in vivo",10%
same,rate of Grade 3/4 neutropenia,"NSCLC; human, in vivo",27%
same,rate of Grade 3/4 thrombocytopenia,"NSCLC; human, in vivo",13%
same,"vomiting, Grade 3/4","NSCLC; human, in vivo",6%
"ipilimumab: fully human, IgG1 monoclonal antibody that blocks the binding of CTLA-4 to its B7 ligands",drug related hypersensitivity events (Grade 1-2),[2]; 0.3 mg/kg group,1.4%
same,drug-related hypersensitivity events,[2]; 3 mg/kg group,no drug-related hypersensitivity events
same,drug related hypersensitivity events (Grade 1-2),[2]; 10 mg/kg group,2.8%
same,Grade 3-4 drug-related hypersensitivity events,[2]; across the 3 treatment groups,no Grade 3-4 drug-related hypersensitivity events
nivolumab,IFN-7 secretion from CMV specific memory T cells,[3],augmented IFN-7 secretion
same,PFS rate at 24 weeks,[4]; PD-L1+ tumors,40%
same,"disease control rate (DCR, CR+PR+SD)",[4]; PD-L1+ tumors,54%
same,median OS,[4]; PD-L1+ tumors,19.1 months
same,overall response rate (ORR),[4]; PD-L1+ tumors (IHC >= 5%),31%
same,PFS rate at 24 weeks,[4]; PD-L1− tumors,45%
same,"disease control rate (DCR, CR+PR+SD)",[4]; PD-L1− tumors,50%
same,median OS,[4]; PD-L1− tumors,not reached
same,overall response rate (ORR),[4]; PD-L1− tumors,15%
same,OS rate at 12 months,[4]; [9],74%
same,PFS rate at 24 weeks,[4]; [9],41%
same,disease control rate (DCR),[4]; [9],50%
same,median PFS,[4]; [9],16 weeks
same,median overall survival (OS),[4]; [9],22.6 months
same,overall response rate (ORR),[4]; [9],23%
same,coefficient of variation (cv %) of exposure greater than that of 3 mg/kg dosing,[5]; 240 mg flat vs 3 mg/kg,< 10%
same,"geometric mean Cminss, Cmaxss and Cavgss with flat dosing higher than with 3 mg/kg",[5]; 240 mg flat vs 3 mg/kg,< 15%
same,PK in global and Japanese subjects,[5]; comparison of PK parameters,similar
same,Cavgss Geo. Mean,[5]; [10],73.3 (35.6)
same,Cmaxss Geo. Mean,[5]; [10],118.9 (31.8)
same,Cminss Geo. Mean,[5]; [10],54.7 (41.9)
same,PK linearity,"[5]; dose range of 0.1 to 10 mg/kg, dose proportional exposures",linear
same,Cavgss Geo. Mean,"[5]; flat dose 240 (mg), predicted",82.4 (38.2)
same,Cmaxss Geo. Mean,"[5]; flat dose 240 (mg), predicted",133.7 (35.0)
same,Cminss Geo. Mean,"[5]; flat dose 240 (mg), predicted",61.5 (44.6)
same,half-life,[5]; in vivo,up to 25 days
same,safety and tolerability,[6]; Japanese subjects,safe and well tolerated
same,dose achieved without reaching the maximum tolerated dose (MTD),"[6]; monotherapy, every two weeks",> 10 mg/kg
same,safety and tolerability,[6]; up to a dose level of 10 mg/kg,safe and well tolerated
same,objective response rates,previously treated NSCLC,~25%
same,progression-free survival (PFS) rate at 24 weeks,previously treated NSCLC,~45%
same,overall response rate (ORR),[7],15%
same,24-week PFS rate,[8]; non-squamous,42%
same,objective response rate (ORR),[8]; non-squamous,26%
same,24-week PFS rate,[8]; squamous,45%
same,objective response rate (ORR),[8]; squamous,22%
same,HR for overall survival vs docetaxel,[1]; CA209017,0.59
same,median overall survival (OS),[1]; CA209017,9.6 months
same,treatment-related deaths (grade 5 event),[1]; CA209017,none
same,patients with a Grade 3-5 treatment-related event,[1]; in vivo,6.9%
same,mean PD-1 occupancy rate,PD-1,85%
same,mean plateau occupancy,PD-1,72%
paclitaxel/carboplatin,"arthralgia, Grade 3/4","NSCLC; human, in vivo",6%
same,"fatigue, Grade 3/4","NSCLC; human, in vivo",5%
same,"febrile neutropenia, Grade 3/4","NSCLC; human, in vivo",3%
same,"neuropathy, Grade 2/3","NSCLC; human, in vivo",18%
